Reference: ChEMBL document CHEMBL1201862, “PubChem BioAssay data set” (2004)
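How tested: cells in 96-well plates exposed to compound for 48 hours at five concentrations. GI50 is the concentration that inhibits growth by half.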 Activity calls are given as the source filed them. No stated cut-off is given here; in the data, active = GI50 up to about 1.1 µM and inactive = higher.

Assays:
Experiment in all cases: NCI tumour cell line growth inhibition, 48 h
UO-31 = tested on: UO-31
COLO 205 = tested on: COLO 205
MDA-MB-435 = tested on: MDA-MB-435
SF-539 = tested on: SF-539
NCI-H23 = tested on: NCI-H23
PC-3 = tested on: PC-3
U-251 = tested on: U-251
OVCAR-8 = tested on: OVCAR-8
M14 = tested on: M14
TK-10 = tested on: TK-10
HCT-15 = tested on: HCT-15
SF-295 = tested on: SF-295
DU-145 = tested on: DU-145
RXF 393 = tested on: RXF 393
UACC-257 = tested on: UACC-257
HL-60 = tested on: HL-60
MDA-N = tested on: MDA-N
SW-620 = tested on: SW-620
A498 = tested on: A498
SK-MEL-5 = tested on: SK-MEL-5
CCRF-CEM = tested on: CCRF-CEM
786-0 = tested on: 786-0
K562 = tested on: K562
Malme-3M = tested on: Malme-3M
NCI-H460 = tested on: NCI-H460
SR = tested on: SR
NCI/ADR-RES = tested on: NCI/ADR-RES
HT-29 = tested on: HT-29
SF-268 = tested on: SF-268
HOP-92 = tested on: HOP-92
NCI-H522 = tested on: NCI-H522
NCI-H226 = tested on: NCI-H226
ACHN = tested on: ACHN
HCC 2998 = tested on: HCC 2998
BT-549 = tested on: BT-549
SNB-19 = tested on: SNB-19
SNB-75 = tested on: SNB-75
RPMI-8226 = tested on: RPMI-8226
OVCAR-4 = tested on: OVCAR-4
UACC-62 = tested on: UACC-62
A549 = tested on: A549
HCT-116 = tested on: HCT-116
OVCAR-5 = tested on: OVCAR-5
OVCAR-3 = tested on: OVCAR-3
MDA-MB-231 = tested on: MDA-MB-231
CAKI-1 = tested on: CAKI-1
KM12 = tested on: KM12
IGROV-1 = tested on: IGROV-1
SK-MEL-28 = tested on: SK-MEL-28
T47D = tested on: T47D
SK-MEL-2 = tested on: SK-MEL-2
MOLT-4 = tested on: MOLT-4
MCF7 = tested on: MCF7
SK-OV-3 = tested on: SK-OV-3
HOP-62 = tested on: HOP-62
Hs-578T = tested on: Hs-578T
LOX IMVI = tested on: LOX IMVI
EKVX = tested on: EKVX
SN12C = tested on: SN12C

Measured: GI50

Cc1cc(Cl)ccc1C(=O)c1ccc2ccccc2c1C(=O)O
> 100 µM: HCT-15
inactive: UO-31 > 100 µM | COLO 205 > 100 µM | MDA-MB-435 > 100 µM | SF-539 > 100 µM | NCI-H23 > 100 µM | PC-3 > 100 µM | U-251 > 100 µM | OVCAR-8 > 100 µM | M14 > 100 µM | TK-10 > 100 µM | SF-295 98.9 µM | DU-145 > 100 µM | RXF 393 39.6 µM | UACC-257 > 100 µM | HL-60 > 100 µM | MDA-N > 100 µM | SW-620 > 100 µM | A498 > 100 µM | SK-MEL-5 > 100 µM | CCRF-CEM > 100 µM | 786-0 > 100 µM | K562 > 100 µM | Malme-3M > 100 µM | NCI-H460 > 100 µM | SR > 100 µM | NCI/ADR-RES > 100 µM | HT-29 > 100 µM | SF-268 > 100 µM | HOP-92 > 100 µM | NCI-H522 > 100 µM | NCI-H226 > 100 µM | ACHN > 100 µM | HCC 2998 71.6 µM | BT-549 > 100 µM | SNB-19 > 100 µM | SNB-75 85.3 µM | RPMI-8226 > 100 µM | OVCAR-4 > 100 µM | UACC-62 > 100 µM | A549 > 100 µM | HCT-116 > 100 µM | OVCAR-5 > 100 µM | OVCAR-3 > 100 µM | MDA-MB-231 > 100 µM | CAKI-1 > 100 µM | KM12 > 100 µM | IGROV-1 > 100 µM | SK-MEL-28 > 100 µM | T47D > 100 µM | SK-MEL-2 > 100 µM | MOLT-4 > 100 µM | MCF7 41.5 µM

Cc1ccc(S(=O)(=O)NC(CCC(=O)NN)C(=O)NN)cc1 (centres undefined)
active: NCI-H460 0.067 µM
0.304 µM: HCT-15
inactive: UO-31 > 100 µM | SK-OV-3 > 100 µM | COLO 205 > 100 µM | MDA-MB-435 > 100 µM | HOP-62 > 100 µM | SF-539 > 100 µM | NCI-H23 > 100 µM | Hs-578T > 100 µM | PC-3 > 100 µM | U-251 > 100 µM | OVCAR-8 > 100 µM | M14 > 100 µM | TK-10 > 100 µM | SF-295 > 100 µM | RXF 393 > 100 µM | UACC-257 > 100 µM | HL-60 > 100 µM | MDA-N > 100 µM | SW-620 > 100 µM | A498 > 100 µM | SK-MEL-5 > 100 µM | CCRF-CEM > 100 µM | 786-0 > 100 µM | K562 > 100 µM | Malme-3M > 100 µM | LOX IMVI > 100 µM | SR > 100 µM | NCI/ADR-RES > 100 µM | HT-29 > 100 µM | SF-268 > 100 µM | HOP-92 > 100 µM | EKVX > 100 µM | NCI-H522 > 100 µM | NCI-H226 > 100 µM | ACHN > 100 µM | BT-549 > 100 µM | SNB-19 > 100 µM | SNB-75 > 100 µM | RPMI-8226 > 100 µM | OVCAR-4 16.5 µM | UACC-62 > 100 µM | A549 > 100 µM | HCT-116 > 100 µM | OVCAR-5 > 100 µM | OVCAR-3 > 100 µM | MDA-MB-231 > 100 µM | CAKI-1 > 100 µM | KM12 > 100 µM | IGROV-1 > 100 µM | T47D > 100 µM | SK-MEL-2 > 100 µM | MOLT-4 > 100 µM | MCF7 > 100 µM

Cc1ccc(-n2cc(-c3ccc(Cl)cc3)c3c(NNC(=S)NCc4ccccc4)ncnc32)cc1
inactive: UO-31 10.1 µM | SK-OV-3 16.3 µM | COLO 205 10.7 µM | MDA-MB-435 8.02 µM | HOP-62 16.6 µM | SF-539 13.6 µM | SN12C 7.21 µM | NCI-H23 13.5 µM | Hs-578T 60.7 µM | PC-3 2.59 µM | U-251 5.36 µM | OVCAR-8 6.22 µM | M14 10.5 µM | TK-10 11.1 µM | SF-295 6.76 µM | DU-145 24.9 µM | RXF 393 14.3 µM | UACC-257 12.6 µM | HL-60 6.98 µM | MDA-N 14.9 µM | SW-620 4.69 µM | A498 23.6 µM | SK-MEL-5 5.09 µM | CCRF-CEM 2.77 µM | 786-0 9.77 µM | K562 4.99 µM | Malme-3M 20.3 µM | NCI-H460 2.07 µM | LOX IMVI 5.06 µM | SR 3.61 µM | NCI/ADR-RES 6.37 µM | HT-29 14.3 µM | SF-268 8.53 µM | HOP-92 25.4 µM | EKVX 13.1 µM | NCI-H522 4.53 µM | NCI-H226 92.7 µM | ACHN 13.6 µM | BT-549 17.9 µM | SNB-19 23.3 µM | RPMI-8226 9.29 µM | OVCAR-4 17.5 µM | UACC-62 18.1 µM | A549 4 µM | HCT-116 4.66 µM | OVCAR-5 11.3 µM | OVCAR-3 4.56 µM | MDA-MB-231 17.8 µM | CAKI-1 5.46 µM | KM12 3.66 µM | IGROV-1 12.2 µM | SK-MEL-28 16.1 µM | T47D 24.8 µM | SK-MEL-2 3.17 µM | MOLT-4 6.38 µM
6.08 µM: HCT-15
